We go through eleven molecules from patent US6265439A, “Halogenated phenylacetonitrile alkylaminoalkylphenyl compounds as immunosuppressives” (G.D. Searle & Co., priority 2000, dated 2001).

As usually defined, the IC50 is the concentration needed to halve the response being measured.

Where a name gives a salt, the structure may show the parent alone.

Assay [1] relates to conA stimulated spleen cells (T lymphocytes) from female Balb/c mice. The assay can be described thus: Assay B: Suppression of Mitogen-Stimulated Proliferation (Murine) (Culture Conditions II). In kind it is cell-based, Murine (Balb/c mice). The following applies: Mus musculus, T-lymphocyte, 72 h; conA 1 ug/ml, 10^5 cells per well, 3 days, MTT. An excerpt: Assay B: Suppression of Mitogen-Stimulated Proliferation(Murine)(Culture Conditions II.)
It is known that lymphocyte activation can be polyclonally stimulated by plant lectins and other mitogenic substances that induce blast transformation and mitosis. The plant lectin concanavalin A (conA) preferentially induces activation and proliferation of T lymphocytes. Exposure of T cells to conA results in polyclonal T cell activation, and this response can be used to determine the in vitro index of immunomodulatory effects of test compounds on pan-T cell activation. Spleen cells were harvested asceptically from female Balb/c mice, and cells were extruded by compression in phosphate buffered saline (pH 7.0). Cells were pelleted by centrifugation (300×g/5 min) and erythrocytes were lysed by resuspension of the splen cells in a hypotonic solution (5 ml per spleen) containing 0.14M NH4 Cl and 0.017M Tris base, pH 7.2, and incubation for 5 min. An equal volume of freshly prepared medium [lscovels modified Dulbecco's medium containing 2 mM L-glutamine, 5% heat inactivated (56° C./45 min) fetal bovine serum and 40 uM 2-mercaptoethanol] .was added to stop cell lysis. The remaining cells were pelleted, resuspended in medium, filtered through a cotton plug to remove debris, and the leukocytes were then counted. Leukocytes (10^5 cells per 10 ul per well) were incubated at 37° C. in a 95% air/[…] atmosphere in 96 well microtiter plates for 3 days. At the start of culture conA (1 ug/ml, SIGMA Chemical Co., St. Louis, Mo.) alone or in combination with test compound (0.0001-60 uM final) or vehicle control (0.6% DMSO or ethanol). All test compounds were dissolved in 95% ethanol or 100% DMSO, and subsequent dilutions were prepared in media. Inhibition of conA stimulated T cell proliferation was measured using a calorimetric indicator of cell growth and proliferation, MTT [3-(4,5-dimethylthiazol-2-yl)-2 diphenyltetrazolium bromide; 100 ul of a 1 mg/ml solution per well, SIGMA][Mosmann, T., 1988. J. Immunol. Methods 65, 55-63.]Cells were loaded with MTT dye at 37° C. for 4 hours; media supernatants were then aspirated from the cell pellets. MTT loaded cells were solubilized in isopropanol (150 ul per well). Light absorbance was measured at a test wavelength of 570 nm and a reference wavelength of 650 nm using a spectrophotometer. EC50 values for immunosuppressive compounds were estimated by four parameter logistical regression analysis of the optical density data [Delean, A., Munson, P. J. and D. Robard, 1978. Am,. J. Physiol. 235:397.

The test system of assay [2] is ConA-stimulated spleen cells (T-cells) from female Balb/c mice. Put plainly: Assay A: Suppression of Mitogen-Stimulated Proliferation (Murine) (Culture Conditions I). Format: cell-based, Murine (Balb/c mice). To be noted: Mus musculus, T-cell, 120 h; ConA 1.0 μg/ml, 10^5 cells/well, 5 days, MTT. An excerpt:
Assay A: Suppression of Mitogen-Stimulated Proliferation (Murine)(Culture Conditions I)
Lymphocyte activation can be polyclonally stimulated by plant lectins and other mitogens that induce blast transformation and mitosis. Certain mitogens like Concanavalin A (ConA), preferentially activate T-lymphocytes. Exposure to ConA results in polyclonal activation of T-cells and can be used as an in vitro index for general immunomodulation of pan T-cell activity. In this assay spleen cells harvested from female Balb/c mice were incubated at 37° C., in 95% air/5% CO2 atmosphere in 96 well microtiter plates (10^5 cells/well) for 5 days with Iscove's modified Dulbecco's medium [25 mM HEPES […] L-glutamine, 5% fetal bovine serum and 2-mercaptoethanol (40 μM)], concanavalin A (ConA) alone (Sigma, St. Louis, Mo.; 1.0 μg/ml) or ConA in the presence of test compounds (0.001-25 μM). Inhibition of ConA-stimulated proliferation was measured by addition of the calorimetric indicator of growth metabolic activity or viability, MTT (3-(4,5-dimethylthiazol-2-yl)-2 diphenyl tetrazolium bromide; (100 μl/well, 1 mg/ml) Sigma) [Mosmann, T., J. of Immunological Methods, 65, 55-63, 1988]. After four hours, plates were centrifuged (1200 rpm) media supernatants aspirated and dye loaded cells were solubilized in isopropanol (150 μl/well). The absorbance was measured on an ELISA plate reader with a test wavelength of 570 nm and a reference of 630 nm. The IC50 values for active immunosuppressant compounds were calculated by four parameter logistic regression analysis of the results [Delean et al, Am. J. Physiol., 235, 397 (1978)].

For assay [3], the system named is human peripheral blood mononuclear cells. The assay can be described thus: Assay C: One-Way Mixed Lymphocyte Reaction (Human). Format: cell-based. The following applies: mitomycin-C inactivated Raji stimulator cells, 120 hours, 3H-thymidine incorporation. An excerpt:
Assay C: One-Way Mixed Lymphocyte Reaction (Human)
The mixed lymphocyte reaction (MLR) is an assay that measures T-cell activation and mitosis which occurs when lymphocytes from different major and minor histocompatibility complex (MHC) haplotypes are cocultured. This response is considered a "one-way MLR" when stimulator cells are made unresponsive by inhibition of DNA synthesis (treatment with mitomycin-C or gamma-irradiation) prior to coculture with responder cells. This assay can be used as an indicator of the cellular immunomodulation mechanisms involved in transplant rejection. In this assay, human peripheral blood mononuclear cells(PMNC) were used as the responder cell population and were isolated from normal donor blood as follows: Blood samples were collected in LeucoPREP™ tubes (Becton Dickinson, Lincoln Park, N.J.) and the mononuclear cell preparation was obtained by following the manufacturers procedures. Isolated mononuclear cells were co-incubated at 6×10^4 cells/well with a stimulator cell line at 2×10^4 cells/well in RPMI 1640 medium containing 5% fetal bovine serum and 2-mercaptoethanol (40 μM). The stimulator cell line, Raji, which was derived from a human Burkitt lymphoma (American Type Culture Collection, Rockville Md.) was previously inactivated by mitomycin-C treatment (Sigma, St. Louis Mo., 25 μg/ml, 37° for 30 minutes). After repeated washings of mitomycin-C from the stimulator cell line, cocultures were incubated in 96 well microtiter plates at 37° C., in 95% air/5% CO2 atmosphere for 120 hours in the presence or absence of test compounds (0.1-25 μM). Inhibition of proliferation was measured by reduced incorporation of ^3 H-thymidine (0.5 μCi/well, added during the last 24 hours of the assay). The IC50 values for the immunosuppressant compounds were calculated by four parameter logistic regression analysis of the results [Delean et al, Id.]
For orientation: Uptake of a labelled nucleoside into DNA is a usual measure of proliferation.

The conditions of assay [4]: literature, Acta. Pharmacologica Sinica, 11(3), 281-285 (1990); cited from earlier work.

For the molecule `CC(C)C(C#N)(CCCN(C)Cc1ccccc1)c1ccc(F)c(F)c1` (racemic) [Example 1, (±)-3,4-difluoro-α-(1-methylethyl)-α-[3-[methyl(phenylmethyl)amino]propyl]benzeneacetonitrile], in assay [1], the IC50 turned out to be 2.41 µM.
For the molecule `CC(C)C(C#N)(CCCN(C)Cc1ccccc1)c1ccc(F)cc1` (racemic) [Example 2, (±)-4-fluoro-α-(1-methylethyl)-α-[3-[methyl (phenylmethyl)amino]propyl]benzeneacetonitrile, monohydrochloride], the half-inhibitory concentration (IC50) came to 2.2 µM in assay [2], 5.19 µM in assay [1] and 7.2 µM in assay [3].
For `CC(C)C(C#N)(CCCN(C)CCc1ccccc1)c1ccc(F)cc1` (racemic) [Example 3, (±)-4-fluoro-α-(1-methylethyl)-α-[3-[methyl(2-phenylethyl)amino]propyl]benzeneacetonitrile, monohydrochloride] the same measures were 1 µM, 3.22 µM and 4.8 µM.
For `CN(CCCC(C#N)(c1ccc(F)cc1)C1CCCC1)Cc1ccccc1` (racemic) [Example 4, (±)-α-cyclopentyl-4-fluoro-α-[3-(methyl(phenylmethyl)amino]propyl]benzeneacetonitrile, monohydrochioride], the 50% inhibitory concentration (IC50) in assay [2] is 3.2 µM; in assay [1] it was 4.81 µM; in assay [3], 2.3 µM.
Taken in the same sequence, the figures for `CC(C)C(C#N)(CCCCN(C)Cc1ccccc1)c1ccc(F)cc1` (racemic) [Example 5, (±)-4-fluoro-α-(1-methylethyl)-α-[4-(methyl (phenylmethyl)amino]butyl]benzeneacetonitrile, monohydrochloride] were 0.9 µM, 1.76 µM and 2.1 µM.
As for `CC(C)C(C#N)(CCCCCN(C)Cc1ccccc1)c1ccc(F)cc1` (racemic) [Example 6, (±)-4-fluoro-α-(1-methylethyl)-α-[5-methyl(phenylmethyl)amino]pentyl]benzeneacetonitrile], the IC50 in assay [2] came to 0.5 µM; in assay [1], 0.93 µM.
Consider `CC(C)C(C#N)(CCCN(C)Cc1ccccc1)c1ccccc1F` (racemic) [Example 8, (±)-2-fluoro-α-(1-methylethyl)-α-[3-[methyl (phenylmethyl)amino]propyl]benzeneacetonitrile, monohydrochloride], for which the IC50 in assay [2] amounted to 1.4 µM; in assay [1], 3.35 µM; in assay [3] it was 2.9 µM.
With `CC(C)C(C#N)(CCCN(C)Cc1ccccc1)c1c(F)cccc1F` (racemic) [Example 9, (±)-2,6-difluoro-α-(1-methylethyl)-α-[3-[methyl(phenylmethyl)amino]propyl]benzeneacetonitrile, monohydrochloride], in assay [1], the IC50 was 4.15 µM.
Same read-out and setting: with `CC(C)C(C#N)(CCCN(Cc1ccccc1)Cc1ccccc1)c1ccc(F)cc1` (racemic) [Example 10, (±)-α-[3-[bis(phenylmethyl)amino]propyl]-4-fluoro-α-(1-methylethyl)benzeneacetonitrile, monohydrochloride] the figure was 13.5 µM.
Take `COC(=O)C1=C(C)NC(C)=C(C(=O)OCCN(C)Cc2ccccc2)C1c1cccc([N+](=O)[O-])c1` (stereo not shown) [nicardipine]: the “acute and chronic antiinflammatory effects” value in assay [4] was “dose-dependent acute and chronic antiinflammatory effects”.
In the case of `COC(=O)C1=C(C)NC(C)=C(C(=O)OC)C1c1ccccc1[N+](=O)[O-]` [nifedipine], in assay [4], the “acute and chronic antiinflammatory effects” value was “dose-dependent acute and chronic antiinflammatory effects”.
